Source: article PMC12388904, “Hypoglycemic Effects of Silphium perfoliatum L. In Vitro and In Vivo and Its Active Composition Identification by UPLC-Triple-TOF-MS/MS” (Pharmaceuticals, 2025)
Converted amounts (≈) assume the structure as drawn.

Columns and labels:
[1] = system: diabetic mice; experiment: Sucrose tolerance test, PBG detection in alloxan-induced diabetic mice; type: in vivo; settings: sucrose 3 g/kg oral, acarbose 6 mg/kg
Method: (§1) PBG detection in diabetic mice adhered to the protocol previously established by our group. After 12-h fasting, hyperglycemia was induced by tail vein injection of alloxan at a dose of 60 mg/kg. Fasting blood glucose was measured 72 h post-induction. Mice with blood glucose levels of 180–360 mg/dL were considered diabetic and randomized into five groups (n = 8/group): Model (sucrose 3 g/kg); […] SP-10 L (sucrose 3 g/kg + SP-10 5 mg/kg); SP-10 M (sucrose 3 g/kg + SP-10 10 mg/kg) and SP-10 H (sucrose 3 g/kg + SP-10 20 mg/kg). Blood glucose was measured pre-gavage and at 30, 60, and 120 min post-gavage. Data was recorded and analyzed for PBG and AUC using Graphpad Prism 9.5.1. Maltose and starch experiments used identical designs.

[2] = system: diabetic mice; experiment: Starch tolerance test, PBG detection in alloxan-induced diabetic mice; type: in vivo; settings: starch 3 g/kg oral, acarbose 6 mg/kg, compared to model group
Method: as §1

[3] = target: maltase; experiment: In vitro maltase inhibition (rat intestinal mucosa α-glucosidase, glucose assay kit); settings: for IC50: read-out: IC50 against maltase, Figure 4; for IC50 on maltase: Figure 4C, same IC50 in mass units, in brackets
From the text: (§2) The α-Glucosidase preparation and inhibitory activity evaluation followed established laboratory protocols [41]. After overnight fasting, rats were humanely euthanized according to approved ethical guidelines. Small intestinal segments were immediately excised and placed on ice to preserve enzymatic activity. Following longitudinal dissection, the luminal surface was rinsed three times with pre-chilled PBS (0.1 M, pH 7.4), and mucosa was scraped using sterile slides. The mucosal tissue was subsequently dissolved in cold PBS (1:5 m/v), centrifuged (8000 rpm, 4 °C, 4 min), and the supernatant was snap-frozen in liquid nitrogen for storage at −80 °C.
(§3) After shaking, 50 μL of maltase (11.32 U/mL) or sucrase (15.26 U/mL) was added and incubated at 37 °C for 20 min with oscillation. Reactions were terminated by heating at 95 °C for 15 min. Glucose production was quantified using a glucose assay kit, and IC50 values were calculated with GraphPad Prism 9.5.1.

[4] = system: diabetic mice; experiment: Maltose tolerance test, PBG detection in alloxan-induced diabetic mice; type: in vivo; settings: maltose 3 g/kg oral, compared to model group
Method: as §1

[5] = target: sucrase (Rattus norvegicus, UniProt P23739); experiment: In vitro sucrase inhibition (rat intestinal mucosa α-glucosidase, glucose assay kit)
From the text: as §2, §3

[6] = SP-10 10 and 20 mg/kg, compared to model group
[7] = maltose 1 mmol/L, 37 °C, 20 min
[8] = IC50 against sucrase, Figure 4, sucrose 50 mmol/L, 37 °C, 20 min
[9] = IC50 on sucrase, Figure 4D, same IC50 in mass units, in brackets

Chain of sucrase (P23739 whole entry): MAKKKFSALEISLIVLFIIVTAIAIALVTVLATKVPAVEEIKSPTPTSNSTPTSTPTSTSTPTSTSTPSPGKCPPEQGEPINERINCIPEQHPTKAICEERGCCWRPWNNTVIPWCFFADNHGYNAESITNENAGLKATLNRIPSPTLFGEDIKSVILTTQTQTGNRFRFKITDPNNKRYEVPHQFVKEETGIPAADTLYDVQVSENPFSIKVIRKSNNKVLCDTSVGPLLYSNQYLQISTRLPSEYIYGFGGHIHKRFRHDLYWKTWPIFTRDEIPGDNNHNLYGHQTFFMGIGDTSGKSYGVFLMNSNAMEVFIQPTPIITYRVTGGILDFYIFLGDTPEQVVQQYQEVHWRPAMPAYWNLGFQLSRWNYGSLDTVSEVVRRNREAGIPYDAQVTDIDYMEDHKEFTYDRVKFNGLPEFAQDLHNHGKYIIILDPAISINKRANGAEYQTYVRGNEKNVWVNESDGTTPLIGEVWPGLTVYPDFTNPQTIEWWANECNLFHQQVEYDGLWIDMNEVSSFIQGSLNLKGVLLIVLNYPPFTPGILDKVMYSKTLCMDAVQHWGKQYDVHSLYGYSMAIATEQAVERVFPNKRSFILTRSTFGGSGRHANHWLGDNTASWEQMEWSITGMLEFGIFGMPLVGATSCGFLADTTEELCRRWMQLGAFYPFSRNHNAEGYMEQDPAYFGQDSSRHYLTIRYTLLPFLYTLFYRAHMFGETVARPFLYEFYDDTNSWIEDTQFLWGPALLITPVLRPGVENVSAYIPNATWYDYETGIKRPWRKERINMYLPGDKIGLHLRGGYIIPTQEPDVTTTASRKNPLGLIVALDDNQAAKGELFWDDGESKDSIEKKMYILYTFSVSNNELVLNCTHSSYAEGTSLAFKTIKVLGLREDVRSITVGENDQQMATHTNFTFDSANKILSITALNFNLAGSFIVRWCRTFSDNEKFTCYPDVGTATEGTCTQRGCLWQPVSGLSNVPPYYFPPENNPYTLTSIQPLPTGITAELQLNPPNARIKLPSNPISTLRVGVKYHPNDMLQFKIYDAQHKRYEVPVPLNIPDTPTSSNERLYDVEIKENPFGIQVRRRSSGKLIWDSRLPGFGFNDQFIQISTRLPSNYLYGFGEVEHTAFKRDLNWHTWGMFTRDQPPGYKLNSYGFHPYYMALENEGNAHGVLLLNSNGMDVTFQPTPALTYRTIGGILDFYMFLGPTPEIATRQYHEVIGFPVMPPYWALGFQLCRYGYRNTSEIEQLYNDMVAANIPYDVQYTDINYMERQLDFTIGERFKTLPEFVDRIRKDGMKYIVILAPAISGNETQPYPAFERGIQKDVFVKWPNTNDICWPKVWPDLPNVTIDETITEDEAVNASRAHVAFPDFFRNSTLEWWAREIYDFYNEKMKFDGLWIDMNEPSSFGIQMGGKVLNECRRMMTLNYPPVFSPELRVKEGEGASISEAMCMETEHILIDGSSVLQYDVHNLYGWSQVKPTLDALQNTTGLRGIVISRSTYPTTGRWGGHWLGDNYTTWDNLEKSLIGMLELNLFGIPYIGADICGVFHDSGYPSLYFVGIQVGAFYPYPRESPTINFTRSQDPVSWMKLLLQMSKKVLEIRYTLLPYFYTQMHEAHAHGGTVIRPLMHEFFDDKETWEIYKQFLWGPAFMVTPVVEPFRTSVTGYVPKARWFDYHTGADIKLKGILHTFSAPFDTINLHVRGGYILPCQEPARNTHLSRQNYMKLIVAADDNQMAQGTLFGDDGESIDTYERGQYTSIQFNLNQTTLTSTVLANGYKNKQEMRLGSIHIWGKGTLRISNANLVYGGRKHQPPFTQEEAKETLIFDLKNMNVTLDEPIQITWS

Compound | Blood glucose AUC (0–120 min) [1, 6] | PBG levels at 30 min [1, 6] | Glycemic levels by 120 min ([1]; SP-10 H 20 mg/kg) | PBG levels at all measured time points ([2]; SP-10 H 20 mg/kg) | AUC levels (0–120 min) ([2]; SP-10 M 10 mg/kg and SP-10 H 20 mg/kg) | IC50 for maltase inhibition ([3]; Figure 1, maltose 1 mmol/L, 37 °C, 20 min) | IC50 [3, 7] | PBG levels at 30 and 60 min ([4]; all three SP-10 groups (5, 10, 20 mg/kg), acarbose 6 mg/kg) | PBG levels at 120 min ([4]; all treatment groups (SP-10 5, 10, 20 mg/kg, acarbose 6 mg/kg)) | IC50 on maltase [3] | IC50 against sucrase, fold higher relative to acarbose [5] | IC50 [5, 8] | IC50 [5, 9]
C[C@H]1O[C@H](O[C@H]2[C@H](O)[C@@H](O)[C@@H](O[C@H]3[C@H](O)[C@@H](O)C(O)O[C@@H]3CO)O[C@@H]2CO)[C@H](O)[C@@H](O)[C@@H]1N[C@H]1C=C(CO)[C@@H](O)[C@H](O)[C@H]1O (some centres unmarked) [acarbose, Acarbose] | significantly lower | significant attenuation | restored glycemic levels to preprandial values | significantly reduced | markedly decreased | 0.168 µg/mL | 0.26 µM | lower PBG levels at 30 and 60 min, although these differences were not statistically significant | statistically significant reductions |  |  |  | 
O=C(C=Cc1ccc(O)c(O)c1)OC1CC(O)(C(=O)O)CC(O)C1O (centres unmarked) [NCGA, neochlorogenic acid] |  |  |  |  |  |  | 87.7 µM |  |  | 31.07 µg/mL (≈ 87.7 µM) | 215 fold | 130 µM | 129 µM
O=C(/C=C/c1ccc(O)c(O)c1)O[C@@H]1C[C@](O)(C(=O)O)C[C@@H](O)[C@H]1O [CGA, chlorogenic acid] |  |  |  |  |  |  | 115 µM |  |  | 40.60 µg/mL (≈ 115 µM) | 210 fold | 126 µM | 126 µM
O=C(C=Cc1ccc(O)c(O)c1)OC1C(O)CC(O)(C(=O)O)CC1O (centres unmarked) [CCGA, cryptochlorogenic acid] |  |  |  |  |  |  | 109 µM |  |  | 38.47 µg/mL (≈ 109 µM) |  | 110 µM | 110 µM
